From patent publication US20110136876A1, “Altering Pharmacokinetics of Pirfenidone Therapy” (INTERMUNE, INC., priority 2007, published 2011)
Like-named read-outs stand apart in the source and are kept apart here.

How the values were obtained:
[1] = Multiple dose study: adverse events on multiple ascending daily doses taken with food; format: in vivo, human
Protocol: A second study was designed to examine incidences of adverse events on multiple ascending daily doses of pirfenidone. The trial was conducted as an open-label, escalating-dose study with no washout period between dose escalations. 25 healthy adults between the ages of 45 and 79 (inclusive) having body mass indices between 18 and 30 (inclusive) were enrolled. 22 adults completed the treatment. Each volunteer received from 801 mg/day to 4005 mg/day of pirfenidone divided into three equal doses as follows:
Days 1-2: 1 capsule three times a day (TID) (801 mg total daily dose (TDD))
Day 3: 1 capsule in the morning (0800) (267 mg TDD)
Days 4-5: 2 capsules TID (1602 mg TDD)
Day 6: 2 capsules in the morning (534 mg TDD)
Days 7-8: 3 capsules TID (2403 mg TDD)
Day 9: 3 capsules in the morning (801 mg TDD)
Day 12: 4 capsules in the morning (1068 mg TDD)
Day 15: 5 capsules in the morning (1335 mg TDD)
All subjects were admitted to the clinic for clinical evaluation the day before the first dose of study medication and remained confined for 17 days. Each subject received all dose levels of the study drug unless adverse events or the clinical judgment of the trial physician precluded the continuation of treatment. All doses were taken with 240 mL room temperature water and with food (excluding grapefruit juice). TID doses times were ˜0800, ˜1200, and ˜1800.

[2] = Single dose study: pharmacokinetics of pirfenidone, fasted versus fed; format: in vivo; conditions: human, plasma, 801 mg; for half-life: oral, read-out: mean absorption half life (t1/2, abs) (converted)
Protocol: (§1) A study was designed to evaluate the effect of food, antacids, and food taken with antacids on adverse events associated with pirfenidone use. The trial was conducted as a randomized, open-label, four-treatment crossover, with a single dose for each treatment period and a 2-day washout period between study treatments. 16 healthy adults between the ages of 50 and 79 years having body mass indices between 18 and 30 (inclusive) were enrolled and completed all 4 treatment arms. The treatment arms were as follows:
(§2) A) pirfenidone alone (Fasted);
(§3) B) pirfenidone within 1 minute following a dose of antacid (20 mL Mylanta® Maximum Strength Liquid) (Fasted+Antacid);
(§4) C) pirfenidone 5 minutes after completing a standard meal (Fed); and
(§5) D) pirfenidone 5 minutes after completing a standard meal, then within 1 minute, followed by a dose of antacid (Fed+Antacid).
(§6) All subjects were admitted to the clinic for clinical evaluation the day prior to receiving the first dose of the study medication and remained confined for 13 days. Following an overnight fast of at least 10 hours (h), subjects were randomized to one of the above-described 4 treatment sequences. Each dose of pirfenidone (3×267 mg capsules) was administered orally with 240 mL room temperature water on days 1, 4, 7, and 10 in the morning, following an overnight fast of at least 10 hours. The washout period between treatments was 2 days. A standard meal consisted of 2 fried eggs, 2 strips of bacon, 2 slices of toast, 2 pats of butter, hash brown potatoes (4 oz), and whole milk (8 oz).
Of 7 subjects who reported nausea, 5 of 16 (31%) were fasted compared to only 2 of 16 (13%) fed subjects. Of 5 subjects reporting dizziness, 4 of 16 (25%) were fasted, while only 1 of 16 (6%) was fed. Of 3 subjects reporting somnolence, 2 of 16 (13%) were fasted and 1 of 16 (6%) were fed. Of 3 subjects reporting headaches, 2 of 16 (13%) were fasted and 1 of 16 (6%) were fed.

[3] = Single dose study: adverse events with food, antacid, or food plus antacid; format: in vivo, human; conditions: for dizziness incidence / nausea incidence / somnolence incidence / headache incidence: of 16 subjects
Protocol: as §1, §2, §3, §4, §5, §6
On each study day, adverse events were reviewed with the patients as follows. Before administration of the first dose of the study drug, study site personnel noted the occurrence and nature of each subject's medical condition(s). During the trial, site personnel again noted any change in the condition(s) or occurrence and nature of any adverse events. The severity of adverse events were graded based on the Modified Common Toxicity Criteria and the relationship of the study drug to the adverse event determined.

[4] = 801 to 4005 mg/day TID with food, of 25 subjects

half-life ([2]; with food (fed)): ~1.78 h
half-life ([2]; without food (fasted)): ~0.572 h
Cmax ([2]; po, fasted (without food), single oral dose 3x267 mg capsules, healthy adults): 15700 ng/mL
AUC ([2]; po, fasted, single oral dose 3x267 mg capsules): 72700 ng·h/mL
AUC ([2]; po, fed, single oral dose 3x267 mg capsules): 64600 ng·h/mL
SMILES: Cc1ccc(=O)n(-c2ccccc2)c1 [pirfenidone, 5-methyl-1-phenyl-2-(1H)-pyridone]
subjects with at least one adverse event ([1]; 801 to 4005 mg/day TID with food, 25 subjects): 92%
headache incidence [1, 4]: 28%
nausea incidence [1, 4]: 36%
somnolence incidence [1, 4]: 32%
subjects with adverse events whose adverse events were mild ([1]; of the 23 subjects with at least one adverse event): 96%
dizziness incidence ([3]; all treatment arms): 38%
nausea incidence ([3]; all treatment arms): 44%
somnolence incidence ([3]; all treatment arms): 25%
dizziness incidence ([3]; fasted): 25%
headache incidence ([3]; fasted): 13%
nausea incidence ([3]; fasted): 31%
somnolence incidence ([3]; fasted): 13%
dizziness incidence ([3]; fed): 6%
headache incidence ([3]; fed): 6%
nausea incidence ([3]; fed): 13%
somnolence incidence ([3]; fed): 6%
subjects with at least 1 adverse event ([3]; in total, all treatment arms, 16 subjects): 75%
subjects with adverse events whose adverse events were mild ([3]; of the 12 subjects with at least 1 adverse event): 75%
subjects who experienced an adverse event ([3]; with food (Fed), 16 subjects): 31.3%
subjects who experienced an adverse event ([3]; with food and antacid (Fed+Antacid), 16 subjects): 25%
subjects who experienced an adverse event ([3]; within 1 minute following a dose of antacid (Fasted+Antacid), 16 subjects): 56.3%
subjects who experienced an adverse event ([3]; without food (Fasted), 16 subjects): 56.3%
